Some test systems named below: UO-31 renal; OVCAR-4 ovarian; UACC-257 melanoma; KM20L2 colon; ACHN renal; SK-MEL-5 melanoma; SF-295 CNS; MOLT-4 leukemia; NCI-H522 lung; CAKI-1 renal.
Common to all, as to experiment: NCI tumour cell line growth inhibition, 48 h

Each structure is given as a SMILES string.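 Method: 48-hour compound exposure of cells in 96-well plates, five concentrations, linear interpolation of endpoints. GI50 = concentration required for 50% inhibition of growth. TGI denotes the concentration required for complete inhibition of growth.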

As for `O=[N+]([O-])c1ccc(C2=Nc3ccccc3SC(c3ccccc3)C2)cc1` (stereo unspecified), the TGI was 25.8 µM with UO-31 renal; 27.3 µM in the test with OVCAR-4 ovarian; 51.6 µM in the test on UACC-257 melanoma; 32.8 µM in the test with KM20L2 colon; 36.2 µM in the test on ACHN renal; 32.9 µM with SK-MEL-5 melanoma. Also, the TGI in the test on SF-295 CNS was 46.3 µM; in the test on MOLT-4 leukemia, over 100 µM; in the test with NCI-H522 lung, 26.7 µM; in the test on CAKI-1 renal, 35.8 µM.

Regarding `O=C([CH-]C(=O)c1ccccc1)c1ccccc1.O=C([CH-]C(=O)c1ccccc1)c1ccccc1.[O]=[U+2]=[O]`, the GI50 in the test on OVCAR-4 ovarian is 2.42 µM; with UACC-257 melanoma, 7.84 µM; in the test with KM20L2 colon, 2.65 µM; with ACHN renal, 3.39 µM; with SK-MEL-5 melanoma it was 2.77 µM; in the test on SF-295 CNS, 1.81 µM. Besides, the GI50 is 2.57 µM in the test on MOLT-4 leukemia and 3.79 µM with CAKI-1 renal. Besides, the TGI stood at 14 µM in the test on OVCAR-4 ovarian; 35.5 µM in the test on UACC-257 melanoma; 12.4 µM with KM20L2 colon; 11.9 µM in the test with ACHN renal; 9.12 µM in the test with SK-MEL-5 melanoma; 4.29 µM with SF-295 CNS. Also, the TGI in the test with MOLT-4 leukemia was 27.3 µM; with CAKI-1 renal, 15.6 µM.

As to `O=C(c1ccco1)C1CC(c2c(O)ccc3ccccc23)=NN1` (stereo unspecified), the TGI with UO-31 renal is 23.1 µM; in the test on OVCAR-4 ovarian, over 100 µM; in the test with UACC-257 melanoma, 57.9 µM; in the test with ACHN renal, 25 µM; in the test on SK-MEL-5 melanoma, 29.7 µM; in the test with SF-295 CNS, 23.3 µM. The values for the TGI in the test with MOLT-4 leukemia, with NCI-H522 lung and in the test on CAKI-1 renal were 42.7 µM, 22.5 µM and 38.8 µM, respectively.

Consider `NC(=O)c1ncn2c1NC(=O)CC2`, for which the TGI in the test with UO-31 renal, in the test with OVCAR-4 ovarian, in the test with UACC-257 melanoma, in the test with KM20L2 colon, in the test with SK-MEL-5 melanoma and in the test on SF-295 CNS was over 100 µM throughout. For the same compound, the TGI with MOLT-4 leukemia, with NCI-H522 lung and in the test with CAKI-1 renal was over 100 µM throughout.

In the case of `COC(=O)C1=C(O)C(C(=O)OC)[C@@]2(O)[C@@H](C(=O)OC)[C@H](C)[C@@H](C)[C@@H]1[C@@H]2C(=O)OC` (stereo partly specified), the TGI in the test with UO-31 renal was over 100 µM; with UACC-257 melanoma it was over 100 µM; in the test with ACHN renal it was over 100 µM; in the test with MOLT-4 leukemia, over 100 µM; in the test on NCI-H522 lung, 92.2 µM.

Consider `CC1(C)OC2CC(=O)OCC23C1CC(=O)C1(C)C3CCC2(C)C(c3ccoc3)OC(=O)C3OC321` (stereo unspecified), for which the TGI in the test on UO-31 renal, in the test with OVCAR-4 ovarian, with UACC-257 melanoma, in the test on KM20L2 colon, with SK-MEL-5 melanoma and in the test on SF-295 CNS was over 125 µM throughout. Further, the TGI in the test with MOLT-4 leukemia, in the test with NCI-H522 lung and in the test with CAKI-1 renal was over 125 µM throughout.

As for `CCN1C(=O)N(CC)C2Nn3c(s/c(=C4\C(=O)N(C)c5ccccc54)c3=O)=NC21` (stereo unspecified), the GI50 is 2.82 µM with UO-31 renal; 1.98 µM in the test with OVCAR-4 ovarian; 7.71 µM with UACC-257 melanoma; 3.42 µM in the test on ACHN renal; 4.61 µM in the test on SK-MEL-5 melanoma; 2.83 µM in the test on SF-295 CNS. Also, the GI50 was 3.92 µM in the test on MOLT-4 leukemia, 2.98 µM with NCI-H522 lung and 1.05 µM with CAKI-1 renal. The TGI with UO-31 renal, with OVCAR-4 ovarian, in the test with UACC-257 melanoma, in the test with ACHN renal, in the test with SK-MEL-5 melanoma and in the test with SF-295 CNS was over 100 µM in each case. Moreover, the TGI with MOLT-4 leukemia, in the test with NCI-H522 lung and in the test with CAKI-1 renal was over 100 µM in each case.

`CCCCC#CS(=O)(=O)C(F)(F)F`: the TGI is over 100 µM with UO-31 renal; 98.9 µM in the test with OVCAR-4 ovarian; over 100 µM in the test with UACC-257 melanoma; over 100 µM with KM20L2 colon; over 100 µM in the test on SK-MEL-5 melanoma; over 100 µM with SF-295 CNS. Also, the TGI in the test on MOLT-4 leukemia, with NCI-H522 lung and with CAKI-1 renal was over 100 µM each time.

Consider `Cc1c2ccncc2c(C)c2c1[nH]c1ccccc12`, for which the TGI was 4.62 µM in the test with UO-31 renal; 2.66 µM in the test with OVCAR-4 ovarian; 4.64 µM in the test on UACC-257 melanoma; 5.89 µM in the test on KM20L2 colon; 4.32 µM in the test on ACHN renal; 2.01 µM with SK-MEL-5 melanoma. The TGI in the test on SF-295 CNS came out at 2 µM; in the test on MOLT-4 leukemia, 1.75 µM; in the test with NCI-H522 lung it was 2.93 µM; in the test with CAKI-1 renal, 3.81 µM. In addition, the GI50 with ACHN renal was 0.473 µM.

In the case of `O=C(OCc1ccccc1)C(Cc1ccccc1)N(Cc1ccccc1)Cc1ccccc1` (stereo unspecified), the TGI with UO-31 renal, in the test with OVCAR-4 ovarian, with UACC-257 melanoma, in the test on KM20L2 colon, in the test with ACHN renal and with SK-MEL-5 melanoma was over 100 µM throughout. The TGI with SF-295 CNS, in the test on MOLT-4 leukemia, in the test with NCI-H522 lung and with CAKI-1 renal was over 100 µM throughout.

For the origin of these results see PubChem BioAssay (NCI).
